# Earlier results as cited in US9005587B2, “Anti-bacterial and mineralizing calcium phosphate compositions” (New York University, priority 2011, dated 2015).
# Test system: bacteria
# Details: in vitro; Rolla et al. 1975
compound,measurement,value
"F [F−, fluoride]",F− in solution needed to inhibit adsorption of bacteria on hydroxyapatite,"approximately 9,500 ppm"
